This note sets out measurements from PubChem BioAssay (NCI).

Common to all, as to test: DTP human tumour cell line panel, 48 h
Test [1] concerns A549 NSCLC.
Test [2] deals with CAKI-1 renal.
For test [3], the system named is CCRF-CEM leukemia.
Test [4] relates to HT29 colon.
Test [5] deals with NCI-H23 lung.
The subject of test [6] is SF-268 CNS.
In test [7] the test system is SF-539 CNS.
Test [8] relates to TK-10 renal.

Molecules are shown by their SMILES.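 48-hour exposure; five concentrations; linearly interpolated endpoints. TGI marks complete inhibition of growth.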

Regarding `O=C(NC(=Nc1ccccc1)SCSC(=Nc1ccccc1)NC(=O)c1ccco1)c1ccco1`, the TGI in test [1] was more than 100 µM; in test [2] it was more than 100 µM; in test [3], more than 100 µM; in test [4], more than 100 µM; in test [5], 80.6 µM; in test [6] it was more than 100 µM. The TGI in test [7] stood at 59.1 µM; in test [8] it was 70.4 µM.

Regarding `O=C(C=Nc1ccccc1C(=O)[O-])c1cccs1.O=C(C=Nc1ccccc1C(=O)[O-])c1cccs1.[Ni+2]`, the TGI in test [1], in test [2], in test [3], in test [4], in test [5] and in test [6] was more than 100 µM throughout. The TGI in test [7] and in test [8] was more than 100 µM throughout.

For `O=C(Cc1ccccc1[N+](=O)[O-])C(CO)c1ccccc1[N+](=O)[O-]` (stereo not drawn), the TGI in test [1], in test [2], in test [3], in test [4], in test [5] and in test [6] was more than 100 µM in each case. Further, the total growth inhibition concentration (TGI) in test [7] and in test [8] was more than 100 µM each time.

Take `Nc1nc(N)c(CCCCc2ccccc2)c(C=O)n1`: the TGI in test [1] is more than 100 µM; in test [2], more than 100 µM; in test [3] it was 40.1 µM; in test [4], 26.5 µM; in test [5] it was 41.3 µM; in test [6], 43.3 µM. For the same compound, the results for the concentration for total growth inhibition (TGI) in test [7] and in test [8] were 36.3 µM and 93 µM, respectively.

Regarding `COc1ccc2c(c1)[n+]([O-])c(-c1cccc(Cl)c1)c(N)[n+]2[O-]`, the TGI is more than 100 µM in test [1]; more than 100 µM in test [2]; more than 100 µM in test [3]; more than 100 µM in test [4]; 65.6 µM in test [5]; more than 100 µM in test [6]. In test [7], this compound returned a TGI of more than 100 µM.

As to `O=[N+]([O-])c1cc(-c2nc(=S)[nH][nH]2)ccc1O`, the TGI in test [1], in test [2], in test [3], in test [4], in test [5] and in test [6] was more than 100 µM throughout. Besides, the TGI in test [7] and in test [8] was more than 100 µM each time.

With `O=C(CCC(=O)Nc1ccc(Cl)c(Cl)c1)CC(=O)c1ccc2ccccc2c1`, the TGI in test [1], in test [2], in test [3], in test [4], in test [5] and in test [6] was more than 100 µM each time. The TGI in test [7] and in test [8] was more than 100 µM in each case.

Consider `O=C1C=C(Nc2ccccc2C(=O)CC(=O)C(=O)Nc2ccc(Cl)cc2)c2ccccc2C1=O`, for which the TGI in test [1] was 32.4 µM; in test [2] it was more than 83.4 µM; in test [3], 33.1 µM; in test [4], more than 100 µM; in test [5], 29.6 µM; in test [6], 57.5 µM. In addition, the TGI in test [7] was 50.2 µM; in test [8] it was more than 100 µM.

For `COc1ccc2c(c1)Oc1cc(O)ccc1[C@H]2c1ccccc1C(=O)NC(C)c1ccccc1` (stereo partly drawn), the concentration for total growth inhibition (TGI) in test [1] was 31.5 µM; in test [2], 33.7 µM; in test [3], 72.7 µM; in test [4], 41.5 µM; in test [5], 32.5 µM; in test [6], 45.8 µM. Also, the figures for the concentration for total growth inhibition (TGI) in test [7] and in test [8] were 29.7 µM and 50.4 µM, respectively.

Turning to `O=C(O)CN(c1ccccc1)S(=O)(=O)c1cccc([N+](=O)[O-])c1`, the TGI in test [1], in test [2], in test [3], in test [4], in test [5] and in test [6] was more than 100 µM in each case. For the same compound, the TGI in test [7] and in test [8] was more than 100 µM in each case.

As to `O=C(COc1ccccc1Cl)N1N=C(c2ccccc2)CC1(O)c1ccccc1` (stereo not drawn), the TGI is 44.4 µM in test [1]; 91.8 µM in test [2]; 30.7 µM in test [4]; 25.1 µM in test [5]; more than 100 µM in test [6]; 34.2 µM in test [7]. The compound further had a TGI in test [8] of 49.2 µM.

As to `COc1ccc(Nc2nc3cc(C(F)(F)F)ccc3nc2-c2ccccc2)cc1OC`, the concentration for total growth inhibition (TGI) in test [1] is more than 100 µM; in test [2], 68.8 µM; in test [3], more than 100 µM; in test [4] it was more than 100 µM; in test [5], more than 100 µM; in test [6], more than 100 µM. The figures for the TGI in test [7] and in test [8] were more than 100 µM and 43 µM, respectively.

In the case of `CN1C(=O)CC2(C)c3cc(O)cc(Br)c3N(C)C12` (stereo not drawn), the TGI in test [1], in test [3], in test [4], in test [5], in test [6] and in test [7] was more than 100 µM in each case. This compound registered a TGI in test [8] of more than 100 µM.

With `CC(C)(C)N/N=C(\C(=O)Nc1cccc(Cl)c1)C1C(=O)Nc2ccccc2S1=O` (stereo not drawn), the TGI in test [1], in test [2], in test [3], in test [4], in test [5] and in test [6] was more than 100 µM throughout. Also, the TGI in test [7] and in test [8] was more than 100 µM in each case.

For `CCc1ccccc1NC(=O)C(=O)C(C#N)c1ccccc1Cl` (stereo not drawn), the TGI is more than 100 µM in test [1]; more than 100 µM in test [3]; more than 100 µM in test [4]; more than 100 µM in test [5]; more than 100 µM in test [6]; 6.31 µM in test [8].

Take `CC1(C)NC(=O)N(CCCCCCN2C(=O)NC(C)(C)C2=O)C1=O`: the TGI in test [1], in test [2], in test [3], in test [4], in test [5] and in test [6] was more than 100 µM throughout. The TGI in test [8] is more than 100 µM.

As for `N#CCCN(CCC#N)c1ccc(/C=C(/NC(=O)c2cc([N+](=O)[O-])ccc2Cl)C(=O)NN)cc1`, the TGI in test [1], in test [2], in test [3], in test [4], in test [5] and in test [6] was more than 100 µM in each case. In addition, the TGI in test [7] and in test [8] was more than 100 µM throughout.

In the case of `COc1cccc(C=O)c1C(=O)c1cc(O)ccc1O`, the total growth inhibition concentration (TGI) was more than 100 µM in test [1]; more than 57.4 µM in test [2]; 80.2 µM in test [3]; more than 76.3 µM in test [4]; more than 100 µM in test [5]; more than 55.4 µM in test [6]. Further, the TGI in test [7] was more than 100 µM; in test [8] it was more than 56.7 µM.

Take `COC(=O)[C@H]1COC(=S)N1C(=O)[C@@H](C)[C@H](O)C(C)C`: the TGI in test [1], in test [2], in test [3], in test [4], in test [5] and in test [6] was more than 100 µM each time. Moreover, the TGI in test [7] and in test [8] was more than 100 µM in each case.

Regarding `CC(=O)c1ccccc1NC(=O)C(=O)C(C(=O)c1ccc2ccccc2c1)C1OC(=O)c2ccccc21` (stereo not drawn), the total growth inhibition concentration (TGI) is 70.5 µM in test [1]; 48.1 µM in test [2]; 40 µM in test [3]; 92.4 µM in test [4]; 26.8 µM in test [5]; 51 µM in test [6]. Besides, the TGI in test [7] turned out to be 22.1 µM; in test [8], 92.4 µM.

Regarding `[O-]/N=[N+](/[O-])C1CCCCC1=[N+]1CCOCC1` (stereo not drawn), the TGI in test [1], in test [2], in test [3], in test [4], in test [5] and in test [6] was more than 100 µM throughout. This compound also registered a TGI in test [8] of more than 100 µM.

`COc1cccc2c1OC1Sc3ccccc3-c3nn(-c4ccccc4)c-2c31` (stereo not drawn): the TGI in test [1], in test [3], in test [4], in test [5], in test [6] and in test [7] was more than 100 µM throughout. The same compound had a TGI in test [8] of more than 100 µM.

For `N/C=N/S(=O)(=O)c1ccc(NC(=O)COC(=O)c2cccc3c(=O)c4ccccc4[nH]c23)cc1`, the TGI in test [1], in test [3], in test [4], in test [5], in test [7] and in test [8] was more than 100 µM throughout.

Consider `COC(=O)Cc1c([C@@]2(C)CCCC(C)(C)C2)ccc2c1C(=O)OC2`, for which the TGI in test [1] is 32.4 µM; in test [3], 22.2 µM; in test [4] it was 28.4 µM; in test [5] it was 34.6 µM; in test [7], 31.6 µM; in test [8], 59.3 µM.

Take `COC(=O)[C@H](CC(C)C)NC(=O)[C@H](Cc1ccccc1)N1CC2C=CC1C2` (stereo partly drawn): the total growth inhibition concentration (TGI) in test [1], in test [2], in test [3], in test [4], in test [5] and in test [6] was more than 100 µM throughout. Besides, the TGI in test [7] and in test [8] was more than 100 µM in each case.

Usually TGI stands for the concentration at which net growth stops. Lower therefore signals more potent growth arrest.
